Data from patent US10034897B2, “Methods and compositions for muscular and neuromuscular diseases” (priority 2012, dated 2018).

Tests used:
[1] = Nitric oxide gas bubbled through carrier, change in weight; assay type: physicochemical; details: NO gas bubbled 40 hr, 25 °C
Method: This example illustrates one technique for preparing a composition in accordance with one embodiment of the invention. An accurate amount of a carrier (HNC 167-62) (see below) was introduced into a system. The carrier weight used in these experiments was approximately 250 g and the vessel size was 500 ml. The vessel was equipped with a mechanical stirrer, gas inlet, and gas outlet and was previously purged with argon for about an hour. The temperature of the carrier was kept at about 25-30° C. NO gas regulated at 5 psi (1 psi is about 6,900 Pa) and was then introduced at a controlled rate of about 1 bubble/s with continuous stirring. […] After 6 hours, the weight of the carrier had increased by 0.15%, by 12 hours by 0.25%, and by 24 hours by 0.56%. These increases in weight were believed to be significant considering the relative small molecular weight of NO versus the carrier. […] The carrier also can solidify upon cooling if the carrier is initially a solid at lower temperature.
Each carrier was taken in a 500 mL three necked flask equipped with a mechanical stirrer, gas inlet and a gas outlet. The system was purged with argon for one hour at room temperature (25° C.). Then nitric oxide gas was bubbled into the system. Then, nitric oxide gas was bubbled through carrier for stipulated amount of time. The changes in weight and color were noted. […]

[2] = system: humans; test: Laser Doppler capillary blood flow, closed Hilltop chamber on forearm, Example 5; assay type: in vivo, human; details: applied to the skin at 1/10% in alcohol
Description: The formulation used in these studies contained nitric oxide dispersed in a lipid matrix. […] Nitric oxide is a very rapid acting molecule, and these studies used a system that employed laser Doppler with a covered chamber. The formulation was placed into the chamber and then attached to the skin by an adhesive layer on the covering. This provided a stable measuring device as determined by multiple normal evaluations of the capillary blood flow without treatment of nitric oxide.
A known positive control, methyl nicotinate, was applied to the skin at a concentration of 1/10% in alcohol. […] The vascular dynamics are such that when the blood vessels dilate physical parameters follow Bernoulli's law. This states that as one increases the diameter of a tube containing a liquid to flow will increase but the pressure and the speed of the liquid will decrease. The laser Doppler device accurately measured these parameters.
The test product was labeled as 10,000 ppm NO (nitric oxide). The study participants had 100 mg of the test product applied in a closed Hilltop chamber on the forearm. […]
A Moor Instruments DRT4 Laser Doppler Blood Flow Monitor (Devon, England) was used in these studies. The laser Doppler technique measured blood flow in the microcapillaries of the skin that are close to the skin surface and the blood flow in underlying arterioles and venules that help to regulate skin temperature. […]

[3] = system: humans; test: Laser Doppler capillary circulation in five human subjects, Example 7; assay type: in vivo; details: positive control formulation containing 0.1% methyl nicotinate
Description: This example illustrates delivery of nitric oxide formulations to five human subjects, using procedures and formulations similar to those discussed in Example 5. Each person served as their own control for the testing. A Moor Instruments Laser Doppler was used to determine circulation. […] The formulations used produce positive, almost immediate results when applied to the skin which, in these studies, was manifested by vasodilatation of the cutaneous vascular system.
For each subject, the following creams were applied: a negative control formulation (containing no NO), 0.010 gram of a 10,000 ppm NO formulation, 0.020 gram of a 10,000 ppm NO formulation, and a positive control formulation containing 0.1% methyl nicotinate. The formulations were prepared using procedures similar to those discussed in Example 1.

SMILES	% Wt. gain [1] [%]	Wt Gain [1] [g]	laser Doppler response of positive control [2]	vasodilatation [3]
OCCCO [1,3-Propanediol, 1,3-propanediol]	0.09	0.16	–	–
COC(=O)c1cccnc1 [methyl nicotinate]	–	–	rapid response typical of the vasodilator	vasodilatation was observed
